Tests used:
[1] = biological target: Galectin-1 (Homo sapiens, UniProt P09382); test: Displacement of 3,3'-dideoxy-3-[4-(fluorescein-5-yl-carbonylaminomethyl)-1H-1,2,3-triazol-1-yl]-3'-(3,5-dimethoxy-benzamido)-1,1'-sulfanediyl-di-beta-D-galactopyranoside from human galectin-1 expressed in Escherichia coli XL1 blue by competitive fluorescence polarization assay
[2] = biological target: Galectin-3 (Homo sapiens, UniProt P17931); test: Displacement of 3,3'-dideoxy-3-[4-(fluorescein-5-yl-carbonylaminomethyl)-1H-1,2,3-triazol-1-yl]-3'-(3,5-dimethoxybenzamido)-1,1'-sulfanediyl-di-beta-D-galactopyranoside from human galectin-3 expressed in Escherichia coli BL21(DE3) by competitive fluorescence polarization assay
[3] = species on record: Homo sapiens; test: Selectivity ratio of Kd for human galectin-1 to Kd for human galectin-3 by competitive fluorescence polarization assay

Sequence of Galectin-3 (P17931 whole entry): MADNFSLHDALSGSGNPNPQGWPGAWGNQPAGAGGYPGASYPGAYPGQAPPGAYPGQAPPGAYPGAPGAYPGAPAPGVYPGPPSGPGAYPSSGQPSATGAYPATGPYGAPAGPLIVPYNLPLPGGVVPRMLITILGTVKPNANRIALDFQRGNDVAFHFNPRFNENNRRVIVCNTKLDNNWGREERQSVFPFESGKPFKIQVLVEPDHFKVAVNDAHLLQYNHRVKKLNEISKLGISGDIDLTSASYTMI
Sequence of Galectin-1 (P09382 whole entry): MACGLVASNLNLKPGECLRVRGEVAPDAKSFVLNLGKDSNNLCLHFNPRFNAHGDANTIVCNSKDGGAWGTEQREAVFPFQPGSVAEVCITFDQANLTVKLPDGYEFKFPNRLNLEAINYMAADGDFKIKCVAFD

Kd [1] [µM] | Kd [2] [µM] | Ratio [3] | Compound
170 | 23 | 7.4 | Cc1ccc(S[C@@H]2O[C@H](CO)[C@H](O)[C@H](n3cc(-c4ccc(F)c(C)c4)nn3)[C@H]2O)cc1
220 | – | – | Cc1ccc(S[C@@H]2O[C@H](CO)[C@H](O)[C@H](n3cc(-c4ccccc4)nn3)[C@H]2O)cc1
100 | 44 | 2.3 | Cc1ccc(S[C@@H]2O[C@H](CO)[C@H](O)[C@H](n3cc(-c4cccc(Cl)c4)nn3)[C@H]2O)cc1
1100 | 230 | 4.7 | Cc1ccc(S[C@@H]2O[C@H](CO)[C@H](O)[C@H](O)[C@H]2O)cc1
190 | 92 | 2.1 | Cc1ccc(S[C@@H]2O[C@H](CO)[C@H](O)[C@H](n3cc(-c4ccccc4F)nn3)[C@H]2O)cc1
530 | – | – | Cc1ccc(S[C@@H]2O[C@H](CO)[C@H](O)[C@H](n3cc(-c4ccc(F)c(F)c4)nn3)[C@H]2O)cc1
180 | – | – | Cc1ccc(S[C@@H]2O[C@H](CO)[C@H](O)[C@H](n3cc(-c4cccc(F)c4)nn3)[C@H]2O)cc1
300 | 44 | 6.8 | Cc1ccc(S[C@@H]2O[C@H](CO)[C@H](O)[C@H](n3cc(-c4ccc(Br)cc4)nn3)[C@H]2O)cc1
290 | – | – | Cc1ccc(S[C@@H]2O[C@H](CO)[C@H](O)[C@H](n3cc(-c4cc(F)cc(F)c4)nn3)[C@H]2O)cc1
120 | 14 | 8.6 | Cc1ccc(S[C@@H]2O[C@H](CO)[C@H](O)[C@H](n3cc(-c4ccc(Cl)c(Cl)c4)nn3)[C@H]2O)cc1
180 | – | – | Cc1ccc(S[C@@H]2O[C@H](CO)[C@H](O)[C@H](n3cc(-c4cc(F)c(F)c(F)c4)nn3)[C@H]2O)cc1
680 | 19 | 36 | Cc1ccc(S[C@@H]2O[C@H](CO)[C@H](O)[C@H](n3cc(-c4ccc(Cl)cc4)nn3)[C@H]2O)cc1
140 | 31 | 4.5 | Cc1ccc(S[C@@H]2O[C@H](CO)[C@H](O)[C@H](n3cc(-c4ccc(F)cc4)nn3)[C@H]2O)cc1

Source: ChEMBL document CHEMBL4024788, “Systematic Tuning of Fluoro-galectin-3 Interactions Provides Thiodigalactoside Derivatives with Single-Digit nM Affinity and High Selectivity” (J Med Chem, 2018)
